In patent US11963961B2, “Combination therapy comprising an ACC inhibitor” (Gilead Sciences, Inc., priority 2017, dated 2024):

Legend:
[1] = test system: fast food diet (FFD) male C57B1/6 mouse; experiment: 14-day pharmacology study of Compound 2 and fenofibrate in chow, fast food diet model of fatty liver; assay type: in vivo; conditions: Compound 2 10 mg/kg QD PO, two weeks of dosing
Procedure: Once Daily Compound 2 and Fenofibrate Administered in Chow: 14-Day Pharmacology Study Using the Fast Food Diet Model of Fatty Liver in the Male C57B1/6 Mouse
Purpose: The purpose of this study was to assess the effect of Compound 2 on plasma and liver TG and molecular biology of liver after 10 to 14 days of Compound 2 administered orally (10 mg/kg QD), or fenofibrate (0.1% administration in chow), or the combination in a mice fed a diet high in fat, cholesterol, and fructose (the fast-food diet, FFD). Mice enrolled in this study were fed a fast food diet for approximately 9 months prior to study start. Primary endpoints were plasma triglycerides, liver triglycerides, liver cholesterol, and hepatic gene expression of liver X receptorα (LXRα), and sterol response element binding protein-1c (SREBP1c) target genes by qPCR.

[2] = test system: fast food diet (FFD) male C57BL/6 mouse; experiment: 15-day once daily oral Compound 2 and fenofibrate, fast food diet model of fatty liver; assay type: in vivo; conditions: 15 days
Procedure: Once Daily Oral Administration of Compound 2 and Fenofibrate: 15-Day Pharmacology Study Using the Fast Food Diet Model of Fatty Liver in the Male C57BL/6 Mouse
(§1) Purpose: The purpose of this study was to assess the effect of Compound 2 on plasma and liver triglycerides (TG) and molecular biology of liver after 15 days of oral administration (“PO”) of Compound 2 (5 mg/kg QD), fenofibrate (25 mg/kg and 50 mg/kg QD), or the combination (Compound 2 (5 mg/kg, QD)+fenofibrate (50 mg/kg, QD)) in mice fed a diet high in fat, cholesterol, and fructose (the fast-food diet, FFD (Research Diet D12079B)). Mice enrolled in this study were fed a FFD for approximately 9 months prior to study start. Primary endpoints were plasma TG, liver TG, liver ketone bodies, plasma liver enzymes, hepatic oxidative stress and hepatic gene expression of liver X receptorα (LXRα) and PPARα targets, and profibrotic markers by qPCR.

[3] = test system: subjects with steatosis and F1-F3 fibrosis / NASH; conditions: one subject on Compound 1 20 mg given 145 mg fenofibrate after grade 3 hypertriglyceridemia at week 1
Procedure: Ten subjects with steatosis (MRI-PDFF≥10%) and F1-F3 fibrosis (MRE≥2.88 kPa but non-cirrhotic based on FibroText <0.75, historical imaging and liver biopsy) were treated 20 mg Compound 1 for 12 weeks.
Four of the ten subjects were on fish oil or fenofibrate at baseline and continued the concomitant medication for the duration of the study. Throughout the study subjects were monitored for safety (adverse events, laboratory abnormalities), liver biochemistry, serum markers of fibrosis (ELF and its components TIMP-1, hyaluronic acid, PIII-NP) and cell death (CK18 M30 and M65), liver stiffness (MRE) and fat (MRI-PDFF) and the effect on de novo lipogensis was assessed using heavy water labeling.
The four subjects were analyzed in conjunction with eight subjects from the study described in Example 1. These twelve subjects were on fish oil or fibrates for at least six weeks of the study and included those who were on fish oil or fibrates at baseline or who had graded hypertriglyceridemia and were given fish oil or fibrates during the study.

[4] = test system: pro-fibrotic genes colla1 and timp1; experiment: Hepatic mRNA expression by qPCR, 15-day FFD mouse study; assay type: in vivo; conditions: Compound 2 5 mg/kg; fenofibrate 50 mg/kg; QD PO, 15 days
Procedure: as §1

Structure (SMILES)	Plasma triglycerides, increase relative to vehicle-treated animals [1] [%]	Plasma TG, increase relative to vehicle-treated animals ([2]; Compound 2 5 mg/kg QD PO, 2 h post dose, ad lib fed) [%]	All monitored TG related measurements (total TG, APOB48, VLDL-P, APOC3) [3]	Hepatic expression of pro-fibrotic genes [4]	Effect on the above-mentioned parameters (plasma TG, PPARα and LXRα target genes, ALT/AST, liver TG, βOHB, malondialdehyde) ([2]; fenofibrate alone, both 25 and 50 mg/kg QD PO)
COc1ccccc1[C@H](Cn1c(=O)n(C(C)(C)C(=O)O)c(=O)c2c(C)c(-c3ncco3)sc21)O[C@H]1CC[C@@H](O)CC1 [Compound 2, 2-[1-[(2R)-2-[(4-hydroxycyclohexyl)oxy]-2-(2-methoxyphenyl)ethyl]-5-methyl-6-(1,3-oxazol-2-yl)-2,4-dioxo-1H,2H,3H,4H-thieno[2,3-d]pyrimidin-3-yl]-2-methylpropanoic acid]	15	29			
CC(C)OC(=O)C(C)(C)Oc1ccc(C(=O)c2ccc(Cl)cc2)cc1 [fenofibrate, Fenofibrate, reference compound]			improved to less than baseline	reduced	modest-to-no effect
